Experiments:
[1] = tested on: human retinal endothelial cells; test: Actin stress fiber formation, rhodamine-phalloidin staining, TNFα (Example 7); conditions: 30 minutes
[2] = tested on: human renal glomerular microvascular endothelial cells; test: Actin stress fiber formation (Example 11), glomerular cells; conditions: for F-actin staining pattern: danazol 1 μM alone
[3] = tested on: human retinal endothelial cells; test: TER of retinal endothelial cell monolayers with danazol, steroid receptor antagonists and hormones (Example 10); conditions: 0.1 μM of each additive, background subtracted, divided by 0.33 cm^2
RhoA = test: Rho activation assay (GLISA) in retinal endothelial cells; type: cell-based, human
Description: This experiment was performed using a commercially-available Rho activation assay (GLISA) purchased from Cytoskeleton, Denver, Colo., following the manufacturer's protocol. […] Test compounds diluted in HBSS were placed in the incubator to equilibrate before addition to the cells. Then, 150 μl of each test compound was added to the appropriate culture wells, and the plates were incubated in the incubator for an additional 15 minutes. Then, thrombin was added to appropriate wells. After 1 minute, the cells were washed one time with 1.5 ml phosphate buffered saline and were then lysed with 100 μl GLISA lysis buffer supplemented with protease inhibitors. The extracts were scraped, transferred to microcentrifuge tubes and transferred to ice to preserve the active form of RhoA. All extracts were then cleared of debris by spinning at 10,000 rpms for 2 minutes at 4° C. The supernatants were transferred to new tubes and placed back on ice. Aliquots of each extract were removed for the GLISA assay and for protein determinations. All protein concentrations were within 10%, and the extracts were used at the achieved concentrations (equates to 15 μg total protein per well). The GLISA assay was performed using the reagents supplied in the kit.

[4] = tested on: human retinal endothelial cells; test: TER of endothelial cell monolayers (Example 4), retinal; type: cell-based; conditions: Danazol 1.0 μM, TER measurements/cm^2 of insert, blank subtracted
Description: […]. Assays were also performed in the same manner using passage 8 human brain endothelial cells and passage 8 human umbilical vein endothelial cells.
An initial TER measurement was taken for each insert using EVOM^2 voltohmmeter connected to an STX100 electrode (both from World Precision Instruments). Measurements were also taken at 24, 48, 72 and 144 hours. All data are presented as TER measurements/cm^2 of insert with TER of blank inserts subtracted.

[5] = tested on: human retinal endothelial cells; test: Actin stress fiber formation, rhodamine-phalloidin staining, VEGF (Example 8); type: cell-based; conditions: for change of the VEGF stress fiber pattern: then VEGF 25 ng/ml 30 minutes; for F-actin staining pattern: no VEGF
Description: . […] To counter-stain for nuclei, 100 μl of a 3 μM DAPI (4,6-diamidino-2-phenylindole, dilactate (Invitrogen)) solution was added to each well. After 5 minutes, the cells were washed two times with 100 μl PBS.

HUVECs = test: HUVEC invasion (BioCoat Matrigel Invasion Chambers); type: cell-based, human; conditions: 24 hours
Description: BioCoat Matrigel Invasion Chambers were purchased from BD Biosciences (San Jose, Calif.). Inserts were rehydrated at 37° C. with 500 μl HBSS for 2 hours prior to use in humidified incubator. Trypsinized HUVECs were washed twice with warm EGM-2 containing 0.1% FCS and added to the upper chamber of the invasion insert at 100,000 cells in a total volume of 250 μl. […]. Non-invasive cells were removed from the upper chamber with moistened cotton swabs and then the inserts were washed twice with HBSS. The inserts were then submerged in 10 μM calcein AM prepared in HBSS and incubated for 4 hours. Fluorescence was determined in a microplate reader at 485 nm excitation and 595 nm emission.
All data is presented as representative experiment done in triplicate. Differences between subsets were analyzed using student t-test in Microsoft Excel. P<0.05 was considered statistically significant.

[6] = tested on: human retinal endothelial cells; test: ECIS resistance (Example 12), retinal cells
Akt = Akt phosphorylation (CASE ELISA kit for AKT S473) in retinal endothelial cells; type: cell-based, human; conditions: 2 hours
Description: The cells were grown in a 25 cm^2 flask to near confluence in EGM-2 medium (Lonza, Walkersville, Md.) containing 2% fetal calf serum (Lonza). […] The plate was incubated at 37° C. with 5% CO2 for 24 hours. […] After this incubation, the cells were fixed immediately with 4% formaldehyde, refrigerated, and the extent of phosphorylation of Akt determined using the Akt Cellular Activation of Signaling ELISA Kit (CASE™ Kit for AKT 5473; SABiosciences, Frederick, Md.) following the manufacturer's protocols. The CASE™ Kit for AKT S473 quantifies the amount of activated (phosphorylated) Akt protein relative to total Akt protein in parallel assays using a conventional ELISA format with colorimetric detection. The Akt phosphorylation site is serine 473 and is recognized by one of the antibodies used in one of the two parallel assays to provide a measure of activated Akt protein. The other antibody used in the other parallel assay recognizes Akt to provide a measure of total Akt protein. Both primary antibodies are detected using a horseradish peroxidase-labeled secondary antibody. Addition of the manufacturer's Developing Solution for 10 minutes, followed by addition of the manufacturer's Stop Solution, produces the result which can be measured colorimetrically.

[7] = passage 8 cells, 0.1 U/ml Thrombin + 1.0 μM compound
[8] = passage 12 cells, 0.1 U/ml Thrombin + 1.0 μM compound

C#C[C@]1(O)CC[C@H]2[C@@H]3CCC4=Cc5oncc5C[C@]4(C)[C@H]3CC[C@@]21C [Danazol, 17α-pregna-2,4-dien-20-yno[2,3-d]-isoxazol-17β-ol]
effect on stress fiber development with TNFα ([1]; danazol 0.1 μM or 10 μM, TNFα 50 ng/ml): decreased the number of cells exhibiting stress fiber development
F-actin staining pattern ([1]; danazol 0.1 μM): diffuse staining throughout the cytoplasm
F-actin staining pattern ([1]; danazol 10.0 μM): stress fibers with multiple focal points
F-actin staining pattern ([2]; 15 minutes): perinuclear staining
F-actin staining pattern ([2]; 3 hours): diffuse staining throughout the cells with ruffled edges on many of the cells
F-actin staining pattern ([2]; 24 hours): staining similar to untreated controls
effect on S1P-induced cortical actin rings ([2]; danazol 1 μM with S1P 1 μM): seemed to enhance the cortical rings
effect on TNFα-induced stress fibers ([2]; danazol 1 μM with TNFα 1 ng/ml, all times): decreased the stress fiber formation and the thickness of the fibers at all times
TER at 5 minutes ([3]; None 250.30): 280.03
TER at 60 minutes ([3]; None 251.00): 313.06
TER at 30 minutes ([3]; None 262.31): 311.56
TER at 24 Hours ([3]; None 287.09): 348.35
Percent Inhibition vs. Untreated Control (RhoA; passage 8 cells, 1.0 μM): 73.89%
Mean OD (active RhoA) (RhoA; passage 8 cells, 1.0 μM, no thrombin, Untreated 0.102): 0.027
Mean OD (active RhoA) (RhoA; [7]): 0.373
Percent Inhibition vs. Thrombin (RhoA; [7]): 41.02%
Percent Inhibition vs. Untreated Control (RhoA; passage 12 cells, 1.0 μM): 6.82%
Mean OD (active RhoA) (RhoA; passage 12 cells, 1.0 μM, no thrombin, Untreated 0.455): 0.424
Mean OD (active RhoA) (RhoA; [8]): 0.859
Percent Inhibition vs. Thrombin (RhoA; [8]): 27.57%
TER at 0 Hours ([4]; None 32.3): 21.7
TER at 24 Hours ([4]; None 96.0): 132.3
TER at 48 Hours ([4]; None 144.4): 182.3
TER at 72 Hours ([4]; None 148.0): 217.7
TER at 144 Hours ([4]; None 219.7): 234.8
change of the VEGF stress fiber pattern ([5]; danazol 0.1 μM 30 minutes): made the stress fibers less pronounced and some diffuse staining appeared
F-actin staining pattern ([5]; danazol 0.1 μM): diffuse F-actin staining throughout the cytoplasm
change of the VEGF stress fiber pattern ([5]; danazol 1.0 μM 30 minutes): showed fewer thick stress fibers, but focal points were seen on contact surfaces
F-actin staining pattern ([5]; danazol 1.0 μM): the diffuse staining persisted, but stress fibers and focal points around the perimeter of most cells were visible
change of the VEGF stress fiber pattern ([5]; danazol 10.0 μM 30 minutes): showed strong stress fiber development with focal points
F-actin staining pattern ([5]; danazol 10.0 μM): stress fiber development and focal points were seen
effect on FCS-induced cell invasion (HUVECs; 10 μM): no effect
effect on FCS-induced cell invasion (HUVECs; 100 μM): no effect
start of increase of ECIS compared to untreated cells, after treatment ([6]; 1.0 μM danazol alone): 1.5 to 2.0 h
persistence of increased ECIS ([6]; 1 μM of each compound, monitored for 90 hours): 5 h
PERCENT INCREASE IN AKT PHOSPHORYLATION VERSUS CONTROL (Akt; 0.5 μM danazol): 73.8%
PERCENT INCREASE IN AKT PHOSPHORYLATION VERSUS CONTROL (Akt; 1.0 μM danazol): 66.7%
PERCENT INCREASE IN AKT PHOSPHORYLATION VERSUS CONTROL (Akt; 2.0 μM danazol): 101.6%
PERCENT INCREASE IN AKT PHOSPHORYLATION VERSUS CONTROL (Akt; 5.0 μM danazol): 40.5%
PERCENT INCREASE IN AKT PHOSPHORYLATION VERSUS CONTROL (Akt; 10.0 μM danazol): 115.3%
PERCENT INCREASE IN AKT PHOSPHORYLATION VERSUS CONTROL (Akt; 20.0 μM danazol): 161.3%
PERCENT INCREASE IN AKT PHOSPHORYLATION VERSUS CONTROL (Akt; 50.0 μM danazol): 98.6%

From US20130005699A1, “METHODS AND PRODUCTS FOR TREATMENT OF DISEASES” (DMI ACQUISITION CORP., priority 2009, published 2013)
